Test results as given in patent publication US20100152434A1, “Protein Kinase-binding Nucleosides and Associated Methods” (priority 2007, published 2010).
Read-outs that look alike come from different tables or passages of the source.

How the values were obtained:
[1] = test system: HOP-62; experiment: cells; conditions: Homo sapiens, HOP-62, 48 h
[2] = test system: EKVX; experiment: cells; conditions: Homo sapiens, 48 h
[3] = test system: NCI-H23; experiment: cells; conditions: Homo sapiens, NCI-H23, 48 h
[4] = test system: ACHN
[5] = test system: OVCAR-4
[6] = test system: UACC-257; experiment: cells; conditions: Homo sapiens, UACC-257, 48 h
[7] = test system: OVCAR-8; experiment: cells; conditions: Homo sapiens, OVCAR-8, 48 h
[8] = test system: M14
[9] = test system: HCT-116
[10] = test system: SK-MEL-2; experiment: cells; conditions: Homo sapiens, SK-MEL-2, 48 h
[11] = test system: SK-MEL-5; experiment: cells; conditions: Homo sapiens, SK-MEL-5, 48 h
[12] = test system: A498
[13] = test system: LOX IMVI; experiment: cells; conditions: Homo sapiens, 48 h
[14] = test system: SN12C
[15] = test system: A498; experiment: cells; conditions: Homo sapiens, A498, 48 h
[16] = test system: SK-MEL-5
[17] = test system: SK-OV-3
[18] = test system: NCI-H322M; experiment: cells; conditions: Homo sapiens, NCI-H322M, 48 h
[19] = test system: SNB-75
[20] = test system: UO-31; experiment: cells; conditions: Homo sapiens, UO-31, 48 h
[21] = test system: EKVX
[22] = test system: OVCAR-5; experiment: cells; conditions: Homo sapiens, OVCAR-5, 48 h
[23] = test system: MALME-3M; experiment: cells; conditions: Homo sapiens, 48 h
[24] = test system: HCT-116; experiment: cells; conditions: Homo sapiens, HCT-116, 48 h
[25] = test system: ACHN; experiment: cells; conditions: Homo sapiens, 48 h
[26] = test system: T-47D; experiment: cells; conditions: Homo sapiens, T47D, 48 h
[27] = test system: NCI-H23
[28] = test system: OVCAR-8
[29] = Log10 Concentration −4.0, Molar
[30] = Log10 Concentration −5.0, Molar
[31] = Log10 Concentration −6.0, Molar
[32] = Log10 Concentration −7.0, Molar
[33] = Log10 Concentration −8.0, Molar

CCOC(=O)C[C@@H]1C(O[Si](C)(C)C(C)(C)C)[C@H](n2cnc3c(NC(=O)Nc4ccccc4)ncnc32)O[C@@H]1CNC(=O)NC (some centres unmarked) [Compound 10]
GI50 [1]: 8.96 µM
CC50 ([1]; read-out: LC50): 73.1 µM
GI50 [2]: 17.7 µM
CC50 ([2]; read-out: LC50): > 100 µM
GI50 [3]: 33.3 µM
CC50 ([3]; read-out: LC50): > 100 µM
TGI ([4]; 48 h): >1.00E−4 Molar
Percent Growth [4, 29]: 35%
Percent Growth [4, 30]: 47%
Percent Growth [4, 31]: 96%
Percent Growth [4, 32]: 97%
Percent Growth [4, 33]: 107%
TGI ([5]; 48 h): >1.00E−4 Molar
Percent Growth [5, 29]: 16%
Percent Growth [5, 30]: 53%
Percent Growth [5, 31]: 95%
Percent Growth [5, 32]: 103%
Percent Growth [5, 33]: 98%
GI50 [6]: 5.68 µM
CC50 ([6]; read-out: LC50): > 100 µM
GI50 [7]: 4.92 µM
CC50 ([7]; read-out: LC50): > 100 µM
TGI ([8]; 48 h): 1.16E−5 Molar
Percent Growth [8, 29]: −56%
Percent Growth [8, 30]: 4%
Percent Growth [8, 31]: 81%
Percent Growth [8, 32]: 82%
Percent Growth [8, 33]: 90%
TGI ([9]; 48 h): 1.61E−5 Molar
Percent Growth [9, 29]: −88%
Percent Growth [9, 30]: 23%
Percent Growth [9, 31]: 78%
Percent Growth [9, 32]: 113%
Percent Growth [9, 33]: 93%
GI50 [10]: 5.42 µM
CC50 ([10]; read-out: LC50): > 100 µM
GI50 [11]: 4.34 µM
CC50 ([11]; read-out: LC50): > 100 µM
TGI ([12]; 48 h): 1.71E−5 Molar
Percent Growth [12, 29]: −41%
Percent Growth [12, 30]: 13%
Percent Growth [12, 31]: 91%
Percent Growth [12, 32]: 92%
Percent Growth [12, 33]: 95%
GI50 [13]: 5.46 µM
CC50 ([13]; read-out: LC50): > 100 µM
TGI ([14]; 48 h): >1.00E−4 Molar
Percent Growth [14, 29]: 11%
Percent Growth [14, 30]: 48%
Percent Growth [14, 31]: 103%
Percent Growth [14, 32]: 101%
Percent Growth [14, 33]: 101%
GI50 [15]: 3.34 µM
CC50 ([15]; read-out: LC50): > 100 µM
TGI ([16]; 48 h): >1.00E−4 Molar
Percent Growth [16, 29]: 11%
Percent Growth [16, 30]: 28%
Percent Growth [16, 31]: 89%
Percent Growth [16, 32]: 100%
Percent Growth [16, 33]: 96%
TGI ([17]; 48 h): >1.00E−4 Molar
Percent Growth [17, 29]: 16%
Percent Growth [17, 30]: 66%
Percent Growth [17, 31]: 90%
Percent Growth [17, 32]: 96%
Percent Growth [17, 33]: 96%
GI50 [18]: > 100 µM
CC50 ([18]; read-out: LC50): > 100 µM
TGI ([19]; 48 h): >1.00E−4 Molar
Percent Growth [19, 29]: 22%
Percent Growth [19, 30]: 32%
Percent Growth [19, 31]: 85%
Percent Growth [19, 32]: 90%
Percent Growth [19, 33]: 92%
GI50 [20]: 12.1 µM
CC50 ([20]; read-out: LC50): 71.7 µM
TGI ([21]; 48 h): >1.00E−4 Molar
Percent Growth [21, 29]: 42%
Percent Growth [21, 30]: 53%
Percent Growth [21, 31]: 91%
Percent Growth [21, 32]: 90%
Percent Growth [21, 33]: 92%
GI50 [22]: 31.1 µM
CC50 ([22]; read-out: LC50): > 100 µM
GI50 [23]: 10.3 µM
CC50 ([23]; read-out: LC50): > 100 µM
GI50 [24]: 3.2 µM
CC50 ([24]; read-out: LC50): 45.6 µM
GI50 [25]: 8.55 µM
CC50 ([25]; read-out: LC50): > 100 µM
GI50 [26]: 2.55 µM
CC50 ([26]; read-out: LC50): > 100 µM
TGI ([27]; 48 h): >1.00E−4 Molar
Percent Growth [27, 29]: 36%
Percent Growth [27, 30]: 65%
Percent Growth [27, 31]: 100%
Percent Growth [27, 32]: 100%
Percent Growth [27, 33]: 101%
TGI ([28]; 48 h): 7.72E−5 Molar
Percent Growth [28, 29]: −4%
Percent Growth [28, 30]: 29%
Percent Growth [28, 31]: 98%
Percent Growth [28, 32]: 100%
Percent Growth [28, 33]: 99%
